Literature values in paper PMC4220649 (Blood Cancer Journal, 2014).

System: patients with lymphoma
Conditions: IV bortezomib in lymphoma; cited from earlier work

CC(C)C[C@H](NC(=O)[C@H](Cc1ccccc1)NC(=O)c1cnccn1)B(O)O [bortezomib]
Grade 3 PN rates: 3–13%
Overall rates of PN: 17–55%
